# Where a name gives a salt, the structure may show the parent alone.
# Target: Angiotensin II-Rezeptor
# Experiment: Angiotensin II receptor binding (displacement of [125I]-Angiotensin II from rat lung homogenate)
# Parameters: species or system Ratte
# Conditions: Rattenlunge homogenate; 50 pM [125I]-Angiotensin II; 60 Min. at 37°C; IC50 from dose-response curve
# Experimental: Methodenbeschreibung Angiotensin II-Rezeptorbindung
# Das Gewebe (Rattenlunge) wird in Tris-Puffer (50 mMol Tris, 150 mMol NaCl, 5 mMol EDTA, pH 7.40) homogenisiert und zweimal je 20 Min. bei 20.000 x g zentrifugiert. Das endgültige Pellet wird in Inkubations-Puffer (50 mMol Tris, 5 mMol MgCl2, 0,2 % BSA, pH 7,40) 1:75, bezogen auf das Feuchtgewicht des Gewebes, resuspendiert. Je 0,1 ml Homogenat wird für 60 Min. bei 37°C mit 50 pM [125^I]-Angiotensin II (NEN, Dreieich, FRG) und steigenden Konzentrationen der Testsubstanz in einem Gesamtvolumen von 0,25 ml inkubiert. Die Inkubation wird durch rasche Filtration durch Glasfiber-Filtermatten beendet. Die Filter werden je 4 ml eiskaltem Puffer (25 mMol Tris, 2.5 mMol MgCl2, 0,1 % BSA, pH 7,40) gewaschen. Die gebundene Radioaktivität wird in einem Gamma-Counter ermittelt. Aus der Dosis-Wirkungskurve wird der entsprechende IC50-Wert ermittelt.
row,IC50,SMILES
1,1.2 nM,"CCCc1nc2c(C)cc(-c3cn(C)cn3)cc2n1Cc1ccc(-c2ccccc2C(=O)O)cc1 [Substanz A, 4'-[(2-n-Propyl-4-methyl-6-(1-methyl-imidazol-4-yl)-benzimidazol-1-yl)-methyl]-biphenyl-2-carbonsäure, reference compound]"
2,40 nM,"CCCc1nc2c(C)cc(-c3coc(C)n3)cc2n1Cc1ccc(-c2ccccc2C(=O)O)cc1 [Substanz C, 4'-[(2-n-Propyl-4-methyl-6-(2-methyl-oxazol-4-yl)-benzimidazol-1-yl)-methyl]-biphenyl-2-carbonsäure]"
3,10 nM,"CCOc1nc2ccc(-c3cn(C(C)C)cn3)cc2n1Cc1ccc(-c2ccccc2C(=O)O)cc1 [Substanz D, 4'-[(2-Ethoxy-6-(1-isopropyl-imidazol-4-yl)-benzimidazol-1-yl)-methyl]-biphenyl-2-carbonsäure]"
4,15 nM,"CCCc1nc2c(C)cc(-c3cn(C4CCCCCC4)cn3)cc2n1Cc1ccc(-c2ccccc2C(=O)O)cc1 [Substanz E, 4'-[(2-n-Propyl-4-methyl-6-(1-cycloheptyl-imidazol-4-yl)-benzimidazol-1-yl)-methyl]-biphenyl-2-carbonsäure]"
5,3.4 nM,"CCCc1nc2c(C)cc(-c3cn(CC(N)=O)cn3)cc2n1Cc1ccc(-c2ccccc2C(=O)O)cc1 [Substanz F, 4'-[(2-n-Propyl-4-methyl-6-(1-aminocarbonylmethyl-imidazol-4-yl)-benzimidazol-1-yl)-methyl]-biphenyl-2-carbonsäure]"
6,1.3 nM,"CCCc1nc2c(C)cc(-c3cn(CCCN(C)C)cn3)cc2n1Cc1ccc(-c2ccccc2C(=O)O)cc1 [Substanz G, 4'-[(2-n-Propyl-4-methyl-6-(1-(3-dimethylaminopropyl)-imidazol-4-yl)-benzimidazol-1-yl)-methyl]-biphenyl-2-carbonsäure-dihydrochlorid-pentahydrat]"

# From patent publication EP0552765B1, “Benzimidazoles, pharmaceutical compositions containing them and process for their preparation” (Dr. Karl Thomae GmbH, priority 1992, dated 1993)
